Like-named read-outs stand apart in the source and are kept apart here.
Assays:
CSF1R enzyme = CSF1R enzyme (Homo sapiens (Human), UniProt P07333); test: CSF1R enzymatic inhibitory assay (Z'-LYTE, FRET); type: biochemical; conditions: Z'-LYTE assay platform, 10-point titrations in duplicates, ATP equal to Km
[1] = target: CSF1R in bone-marrow derived macrophages from mice (Mus musculus (Mouse), UniProt P09581); test: Effect of CSF1R inhibitors on MAPK signalling in mouse bone-marrow derived macrophages; type: cell-based; conditions: for BMDM fold relative to PLX3397: Fold change: IC50 inhibitor/IC50 PLX3397, mouse BMDM
Chain of CSF1R in bone-marrow derived macrophages from mice (P09581 20-977): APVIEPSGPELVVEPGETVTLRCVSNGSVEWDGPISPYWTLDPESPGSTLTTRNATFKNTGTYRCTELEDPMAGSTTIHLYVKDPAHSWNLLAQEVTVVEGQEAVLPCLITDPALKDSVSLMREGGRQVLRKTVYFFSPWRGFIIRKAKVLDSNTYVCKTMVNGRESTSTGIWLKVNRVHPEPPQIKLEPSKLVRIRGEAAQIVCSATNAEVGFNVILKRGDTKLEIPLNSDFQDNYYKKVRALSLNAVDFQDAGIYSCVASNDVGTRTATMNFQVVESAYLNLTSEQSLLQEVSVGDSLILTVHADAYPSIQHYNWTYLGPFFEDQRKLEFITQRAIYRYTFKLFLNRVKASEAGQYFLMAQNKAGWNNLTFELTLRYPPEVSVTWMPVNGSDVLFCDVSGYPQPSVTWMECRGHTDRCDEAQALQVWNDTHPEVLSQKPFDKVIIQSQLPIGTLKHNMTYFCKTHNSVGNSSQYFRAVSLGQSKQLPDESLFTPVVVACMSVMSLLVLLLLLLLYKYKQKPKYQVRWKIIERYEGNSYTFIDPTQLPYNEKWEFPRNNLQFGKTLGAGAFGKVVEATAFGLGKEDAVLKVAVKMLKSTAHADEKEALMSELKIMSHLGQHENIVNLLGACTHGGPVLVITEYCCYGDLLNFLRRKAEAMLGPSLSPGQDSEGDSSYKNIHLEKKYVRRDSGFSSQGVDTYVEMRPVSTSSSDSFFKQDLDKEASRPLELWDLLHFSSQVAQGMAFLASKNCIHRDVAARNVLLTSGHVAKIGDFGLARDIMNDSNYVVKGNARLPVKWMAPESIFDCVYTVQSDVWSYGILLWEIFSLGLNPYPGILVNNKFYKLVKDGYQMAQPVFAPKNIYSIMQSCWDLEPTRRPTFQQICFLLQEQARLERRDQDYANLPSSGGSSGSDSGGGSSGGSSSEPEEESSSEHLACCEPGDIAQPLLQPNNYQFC

Chain of CSF1R enzyme (P07333 20-972): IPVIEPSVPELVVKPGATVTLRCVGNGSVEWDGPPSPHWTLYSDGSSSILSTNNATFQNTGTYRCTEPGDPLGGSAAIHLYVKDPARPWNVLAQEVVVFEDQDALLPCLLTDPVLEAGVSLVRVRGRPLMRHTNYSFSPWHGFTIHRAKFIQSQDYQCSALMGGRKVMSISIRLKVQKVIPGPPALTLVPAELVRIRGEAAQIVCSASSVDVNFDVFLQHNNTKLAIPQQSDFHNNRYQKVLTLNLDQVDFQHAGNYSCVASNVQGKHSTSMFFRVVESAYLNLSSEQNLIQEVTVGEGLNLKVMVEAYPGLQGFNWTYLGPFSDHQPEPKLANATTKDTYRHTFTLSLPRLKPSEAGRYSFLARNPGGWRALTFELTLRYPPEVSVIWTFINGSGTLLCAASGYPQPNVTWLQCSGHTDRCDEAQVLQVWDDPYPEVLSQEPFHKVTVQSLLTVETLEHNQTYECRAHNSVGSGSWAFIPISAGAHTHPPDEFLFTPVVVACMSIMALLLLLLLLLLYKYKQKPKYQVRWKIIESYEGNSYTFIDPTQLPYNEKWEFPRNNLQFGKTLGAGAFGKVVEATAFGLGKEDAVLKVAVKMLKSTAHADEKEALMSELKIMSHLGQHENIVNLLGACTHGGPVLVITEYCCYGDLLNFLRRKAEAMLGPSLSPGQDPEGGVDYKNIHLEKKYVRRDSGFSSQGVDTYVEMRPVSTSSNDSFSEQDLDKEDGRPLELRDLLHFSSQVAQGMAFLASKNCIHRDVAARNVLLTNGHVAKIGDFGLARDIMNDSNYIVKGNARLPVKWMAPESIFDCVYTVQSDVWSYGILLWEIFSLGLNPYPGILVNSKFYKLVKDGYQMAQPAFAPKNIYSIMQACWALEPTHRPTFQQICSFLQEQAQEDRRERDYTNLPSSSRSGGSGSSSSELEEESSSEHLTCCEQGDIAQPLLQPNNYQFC

IC50 (CSF1R enzyme)	BMDM fold relative to PLX3397 [1]	IC50 ([1]; read-out: BMDM IC50)	SMILES	IC50 [1]
1.3 nM	1 fold	130 nM	OCc1ccc(-c2cc3c(Cc4ccccc4)ncnc3[nH]2)cc1 [Compound 5a, (4-(4-Benzyl-7H-pyrrolo[2,3-d]pyrimidin-6-yl)phenyl)methanol]	
0.7 nM	5 fold	487 nM	OCc1ccc(-c2cc3c(Cc4ccccc4F)ncnc3[nH]2)cc1 [Compound 5b, (4-(4-(2-Fluorobenzyl)-7H-pyrrolo[2,3-d]pyrimidin-6-yl)phenyl)methanol]	
1.9 nM	>5 fold	> 500 nM	OCc1ccc(-c2cc3c(Cc4cccc(F)c4)ncnc3[nH]2)cc1 [Compound 5c, (4-(4-(3-Fluorobenzyl)-7H-pyrrolo[2,3-d]pyrimidin-6-yl)phenyl)methanol]	
3.1 nM	4.1 fold	320 nM	OCc1ccc(-c2cc3c(Cc4ccc(F)cc4)ncnc3[nH]2)cc1 [Compound 5d, (4-(4-(4-Fluorobenzyl)-7H-pyrrolo[2,3-d]pyrimidin-6-yl)phenyl)methanol]	
1 nM	>3 fold	> 300 nM	Cc1ccc(Cc2ncnc3[nH]c(-c4ccc(CO)cc4)cc23)cc1 [Compound 5e, (4-(4-(4-Methylbenzyl)-7H-pyrrolo[2,3-d]pyrimidin-6-yl)phenyl)methanol]	
0.6 nM	0.8 fold	71 nM	CC(C)c1ccc(Cc2ncnc3[nH]c(-c4ccc(CO)cc4)cc23)cc1 [Compound 5f, (4-(4-(4-Isopropylbenzyl)-7H-pyrrolo[2,3-d]pyrimidin-6-yl)phenyl)methanol]	
1.6 nM	1.7 fold	174 nM	CC(C)(C)c1ccc(Cc2ncnc3[nH]c(-c4ccc(CO)cc4)cc23)cc1 [Compound 5g, (4-(4-(4-(tert-Butyl)benzyl)-7H-pyrrolo[2,3-d]pyrimidin-6-yl)phenyl)methanol]	
3.6 nM	>5 fold	> 500 nM	OCc1ccc(-c2cc3c(Cc4ccc(C(F)(F)F)cc4)ncnc3[nH]2)cc1 [Compound 5h, (4-(4-(4-(Trifluoromethyl)benzyl)-7H-pyrrolo[2,3-d]pyrimidin-6-yl)phenyl)methanol]	
3.8 nM	>5 fold	> 500 nM	CC(c1ccccc1)c1ncnc2[nH]c(-c3ccc(CO)cc3)cc12 (centres unmarked) [Compound 5i, (4-(4-(1-Phenylethyl)-7H-pyrrolo[2,3-d]pyrimidin-6-yl)phenyl)methanol]	
29 nM	>5 fold	> 500 nM	CCC(c1ccccc1)c1ncnc2[nH]c(-c3ccc(CO)cc3)cc12 (centres unmarked) [Compound 5j, (4-(4-(1-Phenylpropyl)-7H-pyrrolo[2,3-d]pyrimidin-6-yl)phenyl)methanol]	
2.7 nM	1.3 fold	100 nM	OCc1ccc(-c2cc3c(C(F)c4ccccc4)ncnc3[nH]2)cc1 (centres unmarked) [Compound 5k, (4-(4-(Fluoro(phenyl)methyl)-7H-pyrrolo[2,3-d]pyrimidin-6-yl)phenyl)methanol]	
1.5 nM	1 fold	107 nM	OCc1ccc(-c2cc3c(Oc4ccccc4)ncnc3[nH]2)cc1 [Compound 9, (4-(4-Phenoxy-7H-pyrrolo[2,3-d]pyrimidin-6-yl)phenyl)methanol]	
11 nM			COc1ccc(-c2cc3c(Cc4ccccc4)ncnc3[nH]2)cc1 [Compound 10, 4-Benzyl-6-(4-methoxyphenyl)-7H-pyrrolo[2,3-d]pyrimidine]	
2.1 nM			CS(=O)(=O)Nc1ccc(-c2cc3c(Cc4ccccc4)ncnc3[nH]2)cc1 [Compound 14, N-(4-(4-Benzyl-7H-pyrrolo[2,3-d]pyrimidin-6-yl)phenyl)methanesulfonamide]	
7.2 nM			c1ccc(Cc2ncnc3[nH]c(-c4ccccc4)cc23)cc1 [Compound 15, 4-Benzyl-6-phenyl-7H-pyrrolo[2,3-d]pyrimidine]	
1.7 nM			CNS(=O)(=O)c1ccc(-c2cc3c(Cc4ccccc4)ncnc3[nH]2)cc1 [Compound 16, 4-(4-Benzyl-7H-pyrrolo[2,3-d]pyrimidin-6-yl)-N-methylbenzenesulfonamide]	
2 nM			CC(C)n1cc(-c2cc3c(Cc4ccccc4)ncnc3[nH]2)cn1 [Compound 17, 4-Benzyl-6-(1-isopropyl-1H-pyrazol-4-yl)-7H-pyrrolo[2,3-d]pyrimidine]	
0.4 nM			Cc1nn(C)cc1-c1cc2c(Cc3ccccc3)ncnc2[nH]1 [Compound 18, 4-Benzyl-6-(1,3-dimethyl-1H-pyrazol-4-yl)-7H-pyrrolo[2,3-d]pyrimidine]	
1.5 nM			CP(C)(=O)c1ccc(-c2cc3c(Cc4ccccc4)ncnc3[nH]2)cc1 [Compound 19, (4-(4-Benzyl-7H-pyrrolo[2,3-d]pyrimidin-6-yl)phenyl)dimethylphosphine oxide]	
			FC(F)(F)c1ccc(CNc2ccc(Cc3c[nH]c4ncc(Cl)cc34)cn2)cn1 [PLX3397, reference compound]	70 to 150 nM
